Read-outs that look alike come from different tables or passages of the source.
What was measured:
[1] = system: plants comprising the MON 88701 event
Method: In year 2, efficacy testing was conducted with twelve events compared to non-transgenic, wild-type Coker 130. For this testing, paired plots were either sprayed or not sprayed. The plots were maintained weed-and insect-free using conventional control programs for the duration of the trial. For the plots that were sprayed, the following treatment applications were conducted (1) 0.5 lb/A dicamba applied PRE, Early POST, Mid POST and Late POST; (2) 1 lb/A dicamba applied PRE, Early POST, Mid POST and Late POST; (3) 2 lb/A dicamba applied PRE, Early POST, Mid POST and Late POST; (4) 0.5 lb/A glufosinate applied Early POST, Mid POST and Late POST: (5) 1 lb/A glufosinate applied Early POST, Mid POST and Late POST: 6) 2 lb/A glufosinate applied Early POST, Mid POST and Late POST; and 7) Control (unsprayed). Preemergence (PRE) is defined as immediately after cotton planting (within 24 hours); Early POST as 2-node cotton; Mid POST as 8-node cotton; and Late POST as 14 node cotton. For these efficacy field trials, there were three plots composed entirely of wild-type cotton (Coker 130). At each post-emergence timing (Early, Mid, Late), one-half of a plot was sprayed with the 1× rate (0.5 lb/A) of dicamba and one-half of the same plot was sprayed with the 1× rate (0.5 lb/A) of glufosinate. Each of the three plots received dicamba and glufosinate spray at one of the post-emergence timing spray applications (Early, Mid, Late).
XR TeeJet® extended range flat spray tips with an 80-degree spray angle were used (TeeJet Technologies, Wheaton, IL). There were 2 nozzles per row (nozzles spaced at 15″ for 30″ rows, 19″ for 38″ rows and 20″ for 40″ rows). Nozzle size depended on sprayer speed and nozzle spacing; however, nozzle size was selected to result in a spray pressure of 25 to 35 PSI. Boom height was adjusted to allow for 50% spray overlap (which occurs at roughly 30″ above the top of the crop).
At each rating time, the following observations were recorded: 1) percent necrosis or burn on the most affected leaves; 2) percent necrosis or burn on a whole-plant basis; 3) epinasty; and 4) any other relevant injury that was observed. Ratings were taken four days after each application and immediately prior to subsequent applications. […] Plots were harvested and recorded as lbs/plot of seedcotton and expressed as lb/acre of seedcotton.

[2] = system: wild-type cotton (Coker 130); test: Year 2 efficacy field trial, wild-type plots; type: in vivo, Gossypium hirsutum; settings: 1× rate (0.5 lb/A), half plot each herbicide, at one post-emergence timing (Early, Mid, Late)
Method: In year 2, efficacy testing was conducted with twelve events compared to non-transgenic, wild-type Coker 130. For this testing, paired plots were either sprayed or not sprayed. The plots were maintained weed-and insect-free using conventional control programs for the duration of the trial. For the plots that were sprayed, the following treatment applications were conducted (1) 0.5 lb/A dicamba applied PRE, Early POST, Mid POST and Late POST; (2) 1 lb/A dicamba applied PRE, Early POST, Mid POST and Late POST; (3) 2 lb/A dicamba applied PRE, Early POST, Mid POST and Late POST; (4) 0.5 lb/A glufosinate applied Early POST, Mid POST and Late POST: (5) 1 lb/A glufosinate applied Early POST, Mid POST and Late POST: 6) 2 lb/A glufosinate applied Early POST, Mid POST and Late POST; and 7) Control (unsprayed). Preemergence (PRE) is defined as immediately after cotton planting (within 24 hours); Early POST as 2-node cotton; Mid POST as 8-node cotton; and Late POST as 14 node cotton. […]
At each rating time, the following observations were recorded: 1) percent necrosis or burn on the most affected leaves; 2) percent necrosis or burn on a whole-plant basis; 3) epinasty; and 4) any other relevant injury that was observed. […] Plots were harvested and recorded as lbs/plot of seedcotton and expressed as lb/acre of seedcotton.

[3] = system: non-transgenic, wild-type Coker 130; test: Year 1 efficacy field trial, wild-type control; type: in vivo, Gossypium hirsutum; settings: sequential regimen: dicamba 1 lb/A preemergence, 5 node, 12 node; glufosinate 1.09 lb/A at 2 node and 8 node; FIG. 7
Method: (§1) In year 1, efficacy testing was conducted with eight events compared to non-transgenic, wild-type Coker 130. For this testing, paired plots were sprayed with dicamba (Clarity®, BASF, Research Triangle Park, NC) and glufosinate (Ignite®, Bayer CropScience, Research Triangle Park, NC) or left unsprayed. The plots were maintained weed-and insect-free using conventional control programs for the duration of the trial. […] For plots that were sprayed, the following applications were conducted: dicamba was applied preemergence at 1 lb/A followed by glufosinate applied 1.09lb/A at the 2 node stage, followed by dicamba applied at 1 lb/A at the 5 node stage, followed by glufosinate applied 1.09 lb/A at the 8 node stage, followed by dicamba applied at 1 lb/A at the 12 node stage. Neither dicamba nor glufosinate were applied with surfactants, fertilizer additive, or other adjuvant. […] Plots were harvested and yield recorded as lbs/plot of seed cotton and expressed as lb/acre of seed cotton. […]

[4] = system: transgenic cotton events (eight events)
Method: as §1

[5] = system: plants comprising the MON 88701 event; type: in vivo, Gossypium hirsutum
Method: In year 3, efficacy field testing of event MON 88701 was conducted to study the rate and timing of application of dicamba and/or glufosinate. […] The treatment and application timing are detailed in Table 2. […] The sprayer protocol was as described for year 2 efficacy field testing. Stand rating, visual injury rating (percent epinasty, percent necrosis), plant height and node number, 50-boll sampling, and yield determinations were as described for agronomic and efficacy field testing above.

## COc1c(Cl)ccc(Cl)c1C(=O)O [dicamba, 3,6-dichloro-2-methoxybenzoic acid]
[1]; in vivo
  injury rating with increasing application rates of dicamba: increased percentage of injury
  yield of seedcotton with increasing application rates of dicamba: nearly equivalent
[2]
  survival of herbicide spray: did not survive
[3]
  survival of the spray regimen: did not survive
[4]; in vivo
  yield of seed cotton, paired sprayed and unsprayed events compared to unsprayed wild-type Coker 130: no significant difference
[5]; in vivo
  yield of seedcotton: no yield loss

## 2-amino-4-(hydroxymethylphosphinyl)butanoic acid [glufosinate]
[1]; 0.5, 1, 2 lb/A glufosinate Early, Mid, Late POST, FIG. 5.B
  injury rating with increasing application rates of glufosinate: increased percentage of injury
[1]; 0.5, 1, 2 lb/A glufosinate applied Early POST, Mid POST and Late POST, FIG. 4.B
  yield of seedcotton with increasing application rates of glufosinate: nearly equivalent
[2]
  survival of herbicide spray: did not survive
[3]
  survival of the spray regimen: did not survive
[4]; sequential regimen: dicamba 1 lb/A preemergence, 5 node, 12 node, glufosinate 1.09 lb/A at 2 node and 8 node, FIG. 3
  yield of seed cotton, paired sprayed and unsprayed events compared to unsprayed wild-type Coker 130: no significant difference
[5]; all other treatment regimens of Table 2 (0.25-1 lb ai/A, four timings), FIG. 6
  yield of seedcotton: no yield loss
